Test results as given in US7655429B2, “Immunoassays for topiramate” (Seradyn, Inc., priority 2004, dated 2010).

How the values were obtained:
[1] = test system: anti-topiramate antibodies prepared with immunogen (18); assay: ELISA binding inhibition study (avidity), free topiramate versus coated antigen; design: species or system Rabbit; Abs: unit not given here
Procedure: ELISA plates for use in an ELISA assay are prepared in order to study the polyclonal antibody prepared as described in Example 21. As such, various topiramate antigens (16), (19), and (20) are coated on different ELISA plates before being subjected to the anti-topiramate antibody and competing free topiramate. More particularly, the topiramate antigens are diluted in coating buffer, and then added to the wells of ELISA plate. After the ELISA plate is incubated for 60 min at 37° C., the solvent in the coating buffer is decanted and a blocking buffer is added to the plate. The plate is incubated again for 60 min at 37° C., and the solvent in the blocking buffer is decanted from the plate. The ELISA plate is then stored with the blocking agent in the wells at 2-8° C. for up to 1 week. The avidity of the anti-topiramate antibodies prepared with immunogen (17) for topiramate analogs are determined by a binding inhibition study. As such, samples are prepared in 1 mL of PBS at pH 7.4 with 0.1% BSA. A composition having 30% Bmax titer or 50% Bmax titer is used to divide the obtained titer value into approximately half the titer value. Using 30% Bmax, an antibody titer of 1:10,000 is diluted to 1:5,000 during the sample preparation stage. About 50 μL of topiramate at different concentrations or calibrator values, (0, 2, 4, 8, 16, 32 μg/ml) are then applied to a plate as prepared in accordance with Example 22. About 50 μL of the diluted antibody is dispensed into the plate, and the compositions in the plate are mixed for 1 min on a horizontal plate shaker. The plate is characterized by a first row not containing topiramate or anti-topiramate antibody, wherein the first row is used as a negative control. A second row not containing topiramate is used as the positive control. The plate is incubated for 60 min, and washed three times with 250 μL of PBS at pH 7.4 with 0.05% tween. About 125 μL of a diluted second antibody conjugate such as antigens (16), (19), or (20), in PBS at pH 7.4 is added to each well of the plate. Titer is determined experimentally by the plate being incubated for 60 min at 37° C. and washed 3 times with 250 μL PBS, pH 7.4 with 0.05% tween. Subsequently, about 125 μL of ABTS substrate is added to each well of the plate and incubated for 20 min. The avidity of the anti-topiramate antibodies prepared with immunogen (18) for topiramate analogs is determined by a binding inhibition study performed with an experimental protocol substantially similar as in Example 24.

[2] = test system: sheep polyclonal antibodies that bind with topiramate prepared from immunogen (18); assay: QMS homogeneous particle-enhanced immunoturbidimetric assay; type: binding; details: Topiramate antigen (19) coated Latex, Polyclonal antibody R1
Procedure: An immunoturbidimetric or QMS® assay, which is a homogeneous particle-enhanced immunoturbidimetric experiment, is performed to test the polyclonal antibodies prepared as in Example 21. […] The assay procedure is initiated by diluting the specimen because the specimens with topiramate can be used to generate results that exceed the highest calibrator value. As such, the specimens may be diluted manually or by using an automated onboard dilution protocol. The assay is based on competition for topiramate-specific antibody binding sites between drug in the sample and drug coated onto a microparticle of topiramate-coated microparticle reagent is rapidly agglutinated in the presence of the anti-topiramate antibody reagent and in the absence of any competing drug of the sample. The rate of absorbance change is measured photometrically, and is directly proportional to the rate of agglutination of the particles. […] A concentration-dependent classic agglutination inhibition curve can be obtained, with maximum rate of agglutination at the lowest topiramate concentration (at zero μg/ml) and the lowest agglutination rate at the highest topiramate concentration (32 μg/ml). The QMS® topiramate assay is initiated after the being calibrated using a full calibration (6-point) procedure. The QMS® is performed as directed in operation manuals in accordance with the average skill of one in the art.

[3] = Antigen 16, Topiramate 2 μg/ml, Rabbit No. 5490
[4] = Antigen 16, Topiramate 2 μg/ml, Rabbit No. 5495
[5] = Antigen 16, Topiramate 4 μg/ml, Rabbit No. 5490
[6] = Antigen 16, Topiramate 4 μg/ml, Rabbit No. 5495
[7] = Antigen 16, Topiramate 8 μg/ml, Rabbit No. 5490
[8] = Antigen 16, Topiramate 8 μg/ml, Rabbit No. 5495
[9] = Antigen 16, Topiramate 16 μg/ml, Rabbit No. 5490
[10] = Antigen 16, Topiramate 16 μg/ml, Rabbit No. 5495
[11] = Antigen 16, Topiramate 32 μg/ml, Rabbit No. 5490
[12] = Antigen 16, Topiramate 32 μg/ml, Rabbit No. 5495
[13] = Antigen 19, Topiramate 2 μg/ml, Rabbit No. 5490
[14] = Antigen 19, Topiramate 2 μg/ml, Rabbit No. 5495
[15] = Antigen 19, Topiramate 4 μg/ml, Rabbit No. 5490
[16] = Antigen 19, Topiramate 4 μg/ml, Rabbit No. 5495
[17] = Antigen 19, Topiramate 8 μg/ml, Rabbit No. 5490
[18] = Antigen 19, Topiramate 8 μg/ml, Rabbit No. 5495
[19] = Antigen 19, Topiramate 16 μg/ml, Rabbit No. 5490
[20] = Antigen 19, Topiramate 16 μg/ml, Rabbit No. 5495
[21] = Antigen 19, Topiramate 32 μg/ml, Rabbit No. 5490
[22] = Antigen 19, Topiramate 32 μg/ml, Rabbit No. 5495
[23] = Antigen 20, Topiramate 2 μg/ml, Rabbit No. 5490
[24] = Antigen 20, Topiramate 2 μg/ml, Rabbit No. 5495
[25] = Antigen 20, Topiramate 4 μg/ml, Rabbit No. 5490
[26] = Antigen 20, Topiramate 4 μg/ml, Rabbit No. 5495
[27] = Antigen 20, Topiramate 8 μg/ml, Rabbit No. 5490
[28] = Antigen 20, Topiramate 8 μg/ml, Rabbit No. 5495
[29] = Antigen 20, Topiramate 16 μg/ml, Rabbit No. 5490
[30] = Antigen 20, Topiramate 16 μg/ml, Rabbit No. 5495
[31] = Antigen 20, Topiramate 32 μg/ml, Rabbit No. 5490
[32] = Antigen 20, Topiramate 32 μg/ml, Rabbit No. 5495

For `CC1(C)O[C@@H]2[C@@H](CO[C@@]3(COS(N)(=O)=O)OC(C)(C)O[C@@H]23)O1` [Topiramate, 2,3:4,5-di-O-isopropylidene-beta-D-fructopyranose sulfamate], which Abs [1, 3] is on record?
The Abs was 0.25.

And the B/Bo [1, 3]?
Its B/Bo is 0.35.

What about the Abs [1, 4] of the same compound?
Its Abs is 0.25.

What about the B/Bo [1, 4] of the same compound?
Its B/Bo is 0.35.

What about the Abs [1, 5] of the same compound?
The Abs was 0.20.

What about the B/Bo [1, 5] of the same compound?
Its B/Bo is 0.28.

And the Abs [1, 6]?
Its Abs is 0.28.

And the B/Bo [1, 6]?
The B/Bo was 0.39.

And the Abs [1, 7]?
The Abs was 0.15.

And the B/Bo [1, 7]?
The B/Bo was 0.21.

What about the Abs [1, 8] of the same compound?
Its Abs is 0.15.

And the B/Bo [1, 8]?
Its B/Bo is 0.21.

What about the Abs [1, 9] of the same compound?
The Abs was 0.12.

And the B/Bo [1, 9]?
Its B/Bo is 0.17.

What about the Abs [1, 10] of the same compound?
The Abs was 0.12.

And the B/Bo [1, 10]?
The B/Bo was 0.17.

And the Abs [1, 11]?
The Abs was 0.10.

And the B/Bo [1, 11]?
Its B/Bo is 0.14.

And the Abs [1, 12]?
The Abs was 0.10.

And the B/Bo [1, 12]?
The B/Bo was 0.14.

What about the Abs [1, 13] of the same compound?
The Abs was 0.10.

What about the B/Bo [1, 13] of the same compound?
Its B/Bo is 0.18.

And the Abs [1, 14]?
The Abs was 0.13.

And the B/Bo [1, 14]?
The B/Bo was 0.20.

What about the Abs [1, 15] of the same compound?
The Abs was 0.06.

What about the B/Bo [1, 15] of the same compound?
The B/Bo was 0.10.

What about the Abs [1, 16] of the same compound?
Its Abs is 0.08.

What about the B/Bo [1, 16] of the same compound?
The B/Bo was 0.12.

And the Abs [1, 17]?
The Abs was 0.04.

What about the B/Bo [1, 17] of the same compound?
The B/Bo was 0.07.

What about the Abs [1, 18] of the same compound?
Its Abs is 0.05.

What about the B/Bo [1, 18] of the same compound?
Its B/Bo is 0.08.

And the Abs [1, 19]?
The Abs was 0.03.

And the B/Bo [1, 19]?
Its B/Bo is 0.06.

And the Abs [1, 20]?
Its Abs is 0.04.

And the B/Bo [1, 20]?
Its B/Bo is 0.06.

What about the Abs [1, 21] of the same compound?
Its Abs is 0.02.

And the B/Bo [1, 21]?
The B/Bo was 0.04.

And the Abs [1, 22]?
The Abs was 0.02.

What about the B/Bo [1, 22] of the same compound?
The B/Bo was 0.03.

What about the Abs [1, 23] of the same compound?
Its Abs is 0.25.

And the B/Bo [1, 23]?
Its B/Bo is 0.63.

And the Abs [1, 24]?
The Abs was 0.18.

And the B/Bo [1, 24]?
The B/Bo was 0.53.

And the Abs [1, 25]?
The Abs was 0.24.

What about the B/Bo [1, 25] of the same compound?
Its B/Bo is 0.60.

What about the Abs [1, 26] of the same compound?
Its Abs is 0.17.

And the B/Bo [1, 26]?
Its B/Bo is 0.50.

And the Abs [1, 27]?
Its Abs is 0.22.

What about the B/Bo [1, 27] of the same compound?
Its B/Bo is 0.55.

And the Abs [1, 28]?
The Abs was 0.16.

What about the B/Bo [1, 28] of the same compound?
The B/Bo was 0.47.

And the Abs [1, 29]?
Its Abs is 0.21.

And the B/Bo [1, 29]?
Its B/Bo is 0.53.

And the Abs [1, 30]?
The Abs was 0.14.

What about the B/Bo [1, 30] of the same compound?
Its B/Bo is 0.41.

And the Abs [1, 31]?
The Abs was 0.20.

What about the B/Bo [1, 31] of the same compound?
Its B/Bo is 0.50.

And the Abs [1, 32]?
Its Abs is 0.11.

What about the B/Bo [1, 32] of the same compound?
Its B/Bo is 0.32.

What about the “Rate (Delta Absorbance)” value ([2]; Topiramate 8 μg/ml sample) of the same compound?
Its value is 60.

And the “Rate (Delta Absorbance)” value ([2]; Topiramate 16 μg/ml sample)?
Its value is 16.

And the “Rate (Delta Absorbance)” value ([2]; Topiramate 32 μg/ml sample)?
The value was 4.
